# From patent US20060069132A1, “Azolecarboxamide herbicides” (priority 2004, published 2006)
# Experiments:
# [1] = system: barnyardgrass; assay: Test A pre-/postemergence herbicide test; format: in vivo, Echinochloa crus-galli
# Outline: (§1)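 Greenhouse injury scoring (0–100, complete control = 100) at approximately ten days follows simultaneous pre- and postemergence application. Soil received a directed spray after seeding; seedlings of 2–10 cm at the one- to two-leaf stage were sprayed to runoff.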
# [2] = system: large crabgrass; assay: Test A pre-/postemergence herbicide test; format: in vivo, Digitaria sanguinalis
# Outline: as §1
# [3] = system: giant foxtail; assay: Test A pre-/postemergence herbicide test; format: in vivo, Setaria faberi
# Outline: as §1
# [4] = system: morningglory; assay: Test A pre-/postemergence herbicide test; format: in vivo, Ipomoea spp.
# Outline: as §1
# [5] = system: redroot pigweed; assay: Test A pre-/postemergence herbicide test; format: in vivo, Amaranthus retroflexus
# Outline: as §1
# [6] = system: velvetleaf; assay: Test A pre-/postemergence herbicide test; format: in vivo, Abutilon theophrasti
# Outline: as §1
# [7] = system: barnyardgrass; assay: Test B pre-/postemergence herbicide test; format: in vivo, Echinochloa crus-galli
# Outline: (§2)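 Formulation: non-phytotoxic solvent mix with surfactant. Timing: preemergence on seed and postemergence on 2–18 cm plants, applied concurrently. Readout after 13–15 d greenhouse: visual 0–100 control rating against controls.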
# [8] = system: Surinam grass; assay: Test B pre-/postemergence herbicide test; format: in vivo, Urochloa decumbens
# Outline: (§3)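 Seeds were planted and treated preemergence with compounds formulated in a non-phytotoxic solvent mixture containing surfactant, while plants at the 1- to 4-leaf stage (2 to 18 cm) received postemergence sprays. Flooded paddy plants were grown to the 2-leaf stage. After 13 to 15 days in a greenhouse, injury was visually rated 0–100 against untreated controls.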
# [9] = system: cocklebur; assay: Test B pre-/postemergence herbicide test; format: in vivo, Xanthium strumarium
# Outline: as §2
# [10] = system: corn; assay: Test B pre-/postemergence herbicide test; format: in vivo, Zea mays
# Outline: as §3
# [11] = system: large crabgrass; assay: Test B pre-/postemergence herbicide test; format: in vivo, Digitaria sanguinalis
# Outline: as §3
# [12] = system: giant foxtail; assay: Test B pre-/postemergence herbicide test; format: in vivo, Setaria faberi
# Outline: as §3
# [13] = system: lambsquarters; assay: Test B pre-/postemergence herbicide test; format: in vivo, Chenopodium album
# Outline: as §3
# [14] = system: morningglory; assay: Test B pre-/postemergence herbicide test; format: in vivo, Ipomoea coccinea
# Outline: as §2
# [15] = system: pigweed; assay: Test B pre-/postemergence herbicide test; format: in vivo, Amaranthus retroflexus
# Outline: as §3
# [16] = system: rice; assay: Test B pre-/postemergence herbicide test; format: in vivo, Oryza sativa; conditions: preemergence
# Outline: as §3
# [17] = system: velvetleaf; assay: Test B pre-/postemergence herbicide test; format: in vivo, Abutilon theophrasti
# Outline: as §3
# [18] = system: blackgrass; assay: Test B postemergence herbicide test; format: in vivo, Alopecurus myosuroides; conditions: scale 0 (no effect) to 100 (complete control)
# Outline: (§4)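 Scale 0–100: zero equals no visible effect, 100 complete control, judged by eye relative to controls. Timing: 13 to 15 days in greenhouse post-treatment. Growth stage at spraying: two leaves (paddy) or one to four leaves, 2–18 cm (postemergence).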
# [19] = system: wheat; assay: Test B postemergence herbicide test; format: in vivo, Triticum aestivum; parameters: key to Wheat plant response rating: 0 = no effect, 100 = complete control; conditions: scale 0 (no effect) to 100 (complete control)
# Outline: (§5)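 Postemergence plants were sprayed with formulated test chemicals at 2 to 18 cm height (1- to 4-leaf stage); paddy species were grown to the 2-leaf stage. After 13 to 15 days in a greenhouse, injury was rated visually against untreated controls on a 0–100 scale (0 = no effect, 100 = complete control).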
# [20] = system: wild oat; assay: Test B postemergence herbicide test; format: in vivo, Avena fatua; conditions: scale 0 (no effect) to 100 (complete control)
# Outline: as §5
# [21] = system: rice; assay: Test B flooded paddy test; format: in vivo, Oryza sativa; conditions: 1000 g ai/ha, visual rating, scale 0 to 100 (0 no effect, 100 complete control), 13 to 15 days
# Outline: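 Visual ratings, 0 (no effect) to 100 (complete control), made versus controls after 13–15 d greenhouse. Paddy plants treated at 2-leaf stage; postemergence plants at 1- to 4-leaf stage, 2–18 cm tall.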
# [22] = system: small flower umbrella sedge; assay: Test B flooded paddy test; format: in vivo, Cyperus difformis; conditions: 1000 g ai/ha, visual rating, scale 0 to 100 (0 no effect, 100 complete control), 13 to 15 days
# Outline: as §4
# [23] = system: ducksalad; assay: Test B flooded paddy test; format: in vivo, Heteranthera limosa; conditions: 1000 g ai/ha, visual rating, scale 0 to 100 (0 no effect, 100 complete control), 13 to 15 days
# Outline: as §4
# [24] = system: barnyardgrass; assay: Test B flooded paddy test; format: in vivo, Echinochloa crus-galli; conditions: 1000 g ai/ha, visual rating, scale 0 to 100 (0 no effect, 100 complete control), 13 to 15 days
# Outline: as §4
# [25] = Postemergence, 500 g ai/ha, 0 to 100 scale, 0 no effect, 100 complete control
# [26] = Postemergence, 2000 g ai/ha, 0 to 100 scale, 0 no effect, 100 complete control
# [27] = Preemergence, 500 g ai/ha, visual rating, 0 to 100 scale (0 no effect, 100 complete control)
# [28] = Preemergence, 2000 g ai/ha, visual rating, 0 to 100 scale (0 no effect, 100 complete control)
# [29] = 500 g ai/ha, visual rating 0-100, 0 no effect, 100 complete control, preemergence
# [30] = Postemergence, 500 g ai/ha, visual rating after 13 to 15 days, scale 0 (no effect) to 100 (complete control)
# [31] = postemergence, 125 g ai/ha, visual rating, scale 0 (no effect) to 100 (complete control)
# [32] = preemergence, 125 g ai/ha, 0 to 100 scale, 0 is no effect, 100 is complete control
# [33] = Postemergence, 500 g ai/ha, visual rating after 13 to 15 days
# [34] = postemergence, 125 g ai/ha, visual rating
smiles,measurement,setting,value
CCn1nc(C(C)(C)C)cc1C(=O)Nc1cccc(C(=O)OC(C)(C)C)c1 [Compound 98],Barnyardgrass plant response rating,[1]; [25],0
same,"Plant response rating, Barnyardgrass",[1]; [26],0
same,Barnyardgrass plant response rating,[1]; [27],0
same,Barnyardgrass plant response rating,[1]; [28],0
same,"Crabgrass, Large plant response rating",[2]; [25],0
same,"Plant response rating, Crabgrass, Large",[2]; [26],0
same,"Crabgrass, Large plant response rating",[2]; [27],0
same,"Crabgrass, Large plant response rating",[2]; [28],0
same,"Foxtail, Giant plant response rating",[3]; [25],0
same,"Plant response rating, Foxtail, Giant",[3]; [26],0
same,"Foxtail, Giant plant response rating",[3]; [27],0
same,"Foxtail, Giant plant response rating",[3]; [28],0
same,Morningglory plant response rating,[4]; [25],0
same,"Plant response rating, Morningglory",[4]; [26],0
same,Morningglory plant response rating,[4]; [27],0
same,Morningglory plant response rating,[4]; [28],0
same,Pigweed plant response rating,[5]; [25],5
same,"Plant response rating, Pigweed",[5]; [26],10
same,Pigweed plant response rating,[5]; [27],0
same,Pigweed plant response rating,[5]; [28],0
same,Velvetleaf plant response rating,[6]; [25],0
same,"Plant response rating, Velvetleaf",[6]; [26],5
same,Velvetleaf plant response rating,[6]; [27],0
same,Velvetleaf plant response rating,[6]; [28],0
same,"Plant response rating, Barnyardgrass",[7]; [29],0
same,"Plant response rating, Barnyardgrass",[7]; [30],10
same,Barnyardgrass plant response rating,[7]; [31],10
same,"Plant response rating, Barnyardgrass",[7]; [32],0
same,"Plant response rating, Surinam Grass",[8]; [29],0
same,"Plant response rating, Surinam Grass",[8]; [30],20
same,Surinam Grass plant response rating,[8]; [31],10
same,"Plant response rating, Surinam Grass",[8]; [32],0
same,"Plant response rating, Cocklebur",[9]; [29],0
same,"Plant response rating, Cocklebur",[9]; [30],20
same,Cocklebur plant response rating,[9]; [31],0
same,"Plant response rating, Cocklebur",[9]; [32],0
same,"Plant response rating, Corn",[10]; [29],0
same,"Plant response rating, Corn",[10]; [30],10
same,Corn plant response rating,[10]; [31],10
same,"Plant response rating, Corn",[10]; [32],0
same,"Plant response rating, Crabgrass, Large",[11]; [29],0
same,"Plant response rating, Crabgrass, Large",[11]; [30],20
same,"Crabgrass, Large plant response rating",[11]; [31],20
same,"Plant response rating, Crabgrass, Large",[11]; [32],0
same,"Plant response rating, Foxtail, Giant",[12]; [29],0
same,"Plant response rating, Foxtail, Giant",[12]; [30],10
same,"Foxtail, Giant plant response rating",[12]; [31],10
same,"Plant response rating, Foxtail, Giant",[12]; [32],0
same,"Plant response rating, Lambsquarters",[13]; [29],0
same,"Plant response rating, Lambsquarters",[13]; [30],30
same,Lambsquarters plant response rating,[13]; [31],20
same,"Plant response rating, Lambsquarters",[13]; [32],0
same,"Plant response rating, Morningglory",[14]; [29],0
same,"Plant response rating, Morningglory",[14]; [30],20
same,Morningglory plant response rating,[14]; [31],0
same,"Plant response rating, Morningglory",[14]; [32],0
same,"Plant response rating, Pigweed",[15]; [29],0
same,"Plant response rating, Pigweed",[15]; [30],30
same,Pigweed plant response rating,[15]; [31],10
same,"Plant response rating, Pigweed",[15]; [32],0
same,"Plant response rating, Rice","[16]; 500 g ai/ha, visual rating 0-100, 0 no effect, 100 complete control",0
same,"Plant response rating, Rice","[16]; 125 g ai/ha, 0 to 100 scale, 0 is no effect, 100 is complete control",0
same,"Plant response rating, Velvetleaf",[17]; [29],0
same,"Plant response rating, Velvetleaf",[17]; [30],10
same,Velvetleaf plant response rating,[17]; [31],10
same,"Plant response rating, Velvetleaf",[17]; [32],0
same,"Plant response rating, Blackgrass",[18]; [33],0
same,Blackgrass plant response rating,[18]; [34],0
same,"Plant response rating, Wheat",[19]; [33],0
same,Wheat plant response rating,[19]; [34],0
same,"Plant response rating, Oat, Wild",[20]; [33],10
same,"Oat, Wild plant response rating",[20]; [34],0
same,Rice plant response rating,[21],0
same,"Sedge, Umbrella plant response rating",[22],0
same,Ducksalad plant response rating,[23],0
same,Barnyardgrass plant response rating,[24],0
